Experimental data published in ChEMBL document CHEMBL1158498, “Synthesis of 4'-ester analogs of resveratrol and their evaluation in malignant melanoma and pancreatic cell lines” (Bioorg Med Chem Lett, 2010).
Active and inactive are the calls of the source. The calls are words filed in the database; no cut-off is given here.

Experiments:
PANC-1 [1] = assay: Cytotoxicity against human PANC1 cells at 50 uM after 72 hrs by WST-1 assay in presence of gemcitabine; type: functional, cell-based
PANC-1 [2] = assay: Cytotoxicity against human PANC1 cells at 50 uM after 72 hrs by WST-1 assay; type: functional, cell-based
DM738 = assay: Cytotoxicity against human DM738 cells at 50 uM after 72 hrs by WST-1 assay; type: functional, cell-based
DM443 = assay: Cytotoxicity against human DM443 cells at 50 uM after 72 hrs by WST-1 assay; type: functional, cell-based
NHDF = assay: Cytotoxicity against human NHDF cells at 50 uM after 72 hrs by WST-1 assay; type: cell-based

Compound	Activity (PANC-1 [1])	Activity (PANC-1 [2])	Activity (DM738)	Activity (DM443)	Activity (NHDF)
CCCCCCCCCCCCCCCC(=O)Oc1ccc(/C=C/c2cc(O)cc(O)c2)cc1	Not toxic	–	–	–	–
CC(=O)Oc1cc(/C=C/c2ccc(O)cc2)cc(OC(C)=O)c1	Not toxic	–	–	–	–
CC(=O)Oc1ccc(/C=C/c2cc(OC(C)=O)cc(OC(C)=O)c2)cc1	Not toxic	Active	–	–	–
CC(=O)Oc1cc(O)cc(/C=C/c2ccc(O)cc2)c1	Not toxic	–	–	–	–
CC(C)C(=O)Oc1ccc(/C=C/c2cc(O)cc(O)c2)cc1	Not toxic	–	Active	Active	–
Oc1cc(F)cc(/C=C/c2ccc(F)cc2)c1	Not toxic	–	Active	Active	–
CCCC(=O)Oc1ccc(/C=C/c2cc(O)cc(O)c2)cc1	Not toxic	–	Active	Active	–
O=C(CCCCC(=O)Oc1ccc(/C=C/c2cc(O)cc(O)c2)cc1)Oc1ccc(/C=C/c2cc(O)cc(O)c2)cc1	Not toxic	–	–	–	Non-toxic
CC(=O)Oc1ccc(/C=C/c2cc(O)cc(O)c2)cc1	–	Active	–	–	Non-toxic
Oc1ccc(/C=C/c2cc(O)cc(O)c2)cc1	Not toxic	–	–	–	–
CCCCCC(=O)Oc1ccc(/C=C/c2cc(O)cc(O)c2)cc1	Not toxic	–	Active	Active	–
